Experiments:
[1] = Solubility of the compound in water at 22 degC; format: physicochemical
Calf thymus DNA [2] = assay: Binding affinity to calf thymus DNA assessed as spectral changes at pH7 by UV/vis spectra; format: nucleic-acid assay; conditions: Bos taurus
[3] = Binding affinity to poly(dA-dT)2 (unknown origin) assessed as spectral changes at pH7 by UV/vis spectra
[4] = Binding affinity to poly A-poly U (unknown origin) assessed as spectral changes at pH7 by UV/vis spectra
[5] = Binding affinity to poly G-poly C (unknown origin) assessed as spectral changes at pH7 by UV/vis spectra
Calf thymus DNA [6] = assay: Binding affinity to calf thymus DNA assessed as binding constant at pH7 by UV/vis titration; format: nucleic-acid assay; conditions: Bos taurus
[7] = Binding affinity to poly(dA-dT)2 (unknown origin) assessed as binding constant at pH7 by UV/vis titration
[8] = Binding affinity to poly A-poly U (unknown origin) assessed as binding constant at pH7 by UV/vis titration
[9] = Binding affinity to poly G-poly C (unknown origin) assessed as binding constant at pH7 by UV/vis titration
Calf thymus DNA [10] = assay: Binding affinity to calf thymus DNA assessed as change in melting temperature at pH7; format: nucleic-acid assay; conditions: Bos taurus
[11] = Binding affinity to poly(dA-dT)2 (unknown origin) assessed as change in melting temperature at pH7
[12] = Binding affinity to poly A-poly U (unknown origin) assessed as change in melting temperature at pH7
[13] = Binding affinity to poly A (unknown origin) assessed as spectral changes by UV/vis spectra
[14] = Binding affinity to poly U (unknown origin) assessed as spectral changes by UV/vis spectra
[15] = Binding affinity to poly G (unknown origin) assessed as spectral changes by UV/vis spectra
[16] = Binding affinity to poly C (unknown origin) assessed as spectral changes by UV/vis spectra
[17] = Binding affinity to poly A (unknown origin) assessed as binding constant at pH7 by UV/vis titration
[18] = Binding affinity to poly U (unknown origin) assessed as binding constant at pH7 by UV/vis titration
[19] = Binding affinity to poly G (unknown origin) assessed as binding constant at pH7 by UV/vis titration
[20] = Binding affinity to poly C (unknown origin) assessed as binding constant at pH7 by UV/vis titration
[21] = Antiproliferative activity against human MOLT4 cells assessed as growth inhibition after 72 hrs by MTT assay; format: functional; conditions: MOLT-4, 72 h
[22] = Antiproliferative activity against human HCT116 cells assessed as growth inhibition after 72 hrs by MTT assay; format: functional; conditions: HCT-116, 72 h
SW-620 = assay: Antiproliferative activity against human SW620 cells assessed as growth inhibition after 72 hrs by MTT assay; format: functional; conditions: SW-620, 72 h
MCF7 = assay: Antiproliferative activity against human MCF7 cells assessed as growth inhibition after 72 hrs by MTT assay; format: functional; conditions: MCF7, 72 h
[23] = Antiproliferative activity against human H460 cells assessed as growth inhibition after 72 hrs by MTT assay; format: functional; conditions: NCI-H460, 72 h
HeLa = assay: Antiproliferative activity against human HeLa cells assessed as growth inhibition after 72 hrs by MTT assay; format: functional
[24] = Antiproliferative activity against human MIAPaCa2 cells assessed as growth inhibition after 72 hrs by MTT assay; format: functional; conditions: MIA PaCa-2, 72 h
Mus musculus = assay: Acute oral toxicity in po dosed BALB/C mouse after 24 hrs; format: organism-based; parameters: unit not given here; conditions: in vivo

SMILES	solubility [1] [µg/mL]	Activity (Calf thymus DNA [2]) [%]	Activity [3] [%]	Activity [4] [%]	Activity [5] [%]	log Ks (Calf thymus DNA [6])	log Ks [7]	log Ks [8]	log Ks [9]	ΔTm (Calf thymus DNA [10]) [°C]	ΔTm [11] [°C]	ΔTm [12] [°C]	Activity [13] [%]	Activity [14] [%]	Activity [15] [%]	Activity [16] [%]	log Ks [17]	log Ks [18]	log Ks [19]	log Ks [20]	also measured
Cl.N=C(N)c1ccc2nc(-c3ccc(N)cc3)sc2c1.O	3300	–	–	–	–	–	–	–	–	–	–	–	–	–	–	–	–	–	–	–	–
Nc1ccc2nc(-c3ccc(C4=NCCN4)cc3)sc2c1	–	38.1	41.1	53.1	23.9	4.77	5.19	4.94	5.1	0	2.1	1.3	29.5	17.5	28.6	16.5	4.83	4.43	5.61	5.23	–
N=C(N)c1ccc(-c2nc3ccc(N)cc3s2)cc1	–	42.2	37.5	45.5	25.3	4.48	5.04	4.5	4.4	0	2	1	24.3	14.7	33.5	13	3.99	5.15	4.6	4.19	–
CS(=O)(=O)O.N=C(N)c1ccc2nc(-c3ccc(N)cc3)sc2c1.O	1100	–	–	–	–	–	–	–	–	–	–	–	–	–	–	–	–	–	–	–	GI50 [21]: 2.2 µM; GI50 [22]: 6.1 µM; GI50 (SW-620): 4.7 µM; GI50 (MCF7): 15.1 µM; GI50 [23]: 3.2 µM; GI50 (HeLa): 17.5 µM; GI50 [24]: 8.5 µM; LD50 (Mus musculus): 26.1
CS(=O)(=O)O.Nc1ccc(-c2nc3ccc(C4=NCCN4)cc3s2)cc1	130000	–	–	–	–	–	–	–	–	–	–	–	–	–	–	–	–	–	–	–	GI50 [21]: 3.2 µM; GI50 [22]: 1.4 µM; GI50 (SW-620): 1.1 µM; GI50 (MCF7): 11.3 µM; GI50 [23]: 0.5 µM; GI50 (HeLa): 16.6 µM; GI50 [24]: 1.4 µM; LD50 (Mus musculus): 175
CS(=O)(=O)O.Nc1ccc2nc(-c3ccc(C4=NCCN4)cc3)sc2c1	145000	–	–	–	–	–	–	–	–	–	–	–	–	–	–	–	–	–	–	–	GI50 [21]: 2.3 µM; GI50 [22]: 1.4 µM; GI50 (SW-620): 1.2 µM; GI50 (MCF7): 6.7 µM; GI50 [23]: 0.4 µM; GI50 (HeLa): 17.9 µM; GI50 [24]: 1.1 µM; LD50 (Mus musculus): 74.7
Cl.Nc1ccc2nc(-c3ccc(C4=NCCN4)cc3)sc2c1.O	600	–	–	–	–	–	–	–	–	–	–	–	–	–	–	–	–	–	–	–	–
Cl.N=C(N)c1ccc(-c2nc3ccc(N)cc3s2)cc1.O	700	–	–	–	–	–	–	–	–	–	–	–	–	–	–	–	–	–	–	–	–
N=C(N)c1ccc2nc(-c3ccc(N)cc3)sc2c1	–	45.6	39.8	71.6	20.3	4.46	5.09	4.55	4.5	0.7	2.8	1.3	23	16.3	23.4	13.6	4.3	4.81	4.85	4.57	–
CS(=O)(=O)O.N=C(N)c1ccc(-c2nc3ccc(N)cc3s2)cc1	12500	–	–	–	–	–	–	–	–	–	–	–	–	–	–	–	–	–	–	–	GI50 [21]: 2.8 µM; GI50 [22]: 1.6 µM; GI50 (SW-620): 3.5 µM; GI50 (MCF7): 1.8 µM; GI50 [23]: 0.3 µM; GI50 (HeLa): 21 µM; GI50 [24]: 9.7 µM; LD50 (Mus musculus): 31.5
Cl.Nc1ccc(-c2nc3ccc(C4=NCCN4)cc3s2)cc1.O	200	–	–	–	–	–	–	–	–	–	–	–	–	–	–	–	–	–	–	–	–
Nc1ccc(-c2nc3ccc(C4=NCCN4)cc3s2)cc1	–	37.1	42.5	55.5	30	5.23	5.41	5.44	4.89	0.7	2.7	3.9	22.2	18.3	30.8	16.3	5.6	4.77	6.46	5.11	–
